The values below are quoted from earlier work in US20090098211A1, “SOLID DOSAGE FORMS” (priority 2007, published 2009).

Consider `CN1CC(=O)N2[C@H](c3ccc4c(c3)OCO4)c3[nH]c4ccccc4c3C[C@@H]2C1=O` [Tadalafil, (6R-trans)-6-(1,3-benzodioxol-5-yl)-2,3,6,7,12,12a-hexahydro-2-methyl-pyrazino[1′,2′:1,6]pyrido[3,4-b]indole-1,4-dione], for which the “solubility in water (in words)” value (water) is on record as “practically insoluble in water”. Moreover, the water solubility entry (water at 25° C.) is “about 2 μg per mL”.
